In one assay the test system is 1型糖尿病小鼠. Briefly: Blood glucose lowering by Glu-insulin in STZ-induced type 1 diabetic mice. Particulars: s.c., insulin-equivalent dose 1.5mg/kg. It counts as in vivo, C57BL/6小鼠.
The next assay has as its system AKT信号磷酸化. Put plainly: In vitro activity of Glu-insulin: AKT phosphorylation in HepG2 cells (western blot). The class given is cell-based. Particulars: 10 min, 0-100nM. In general terms: Immunoblotting shows a protein as a band on a membrane.

From CN117771387A, “糖响应性复合物及其制备方法和应用” (priority 2022, dated 2024) come the findings set out here.

On to “Glu-insulin: Recombinant human insulin modified with gluconic acid at A1 (N-terminus of the α chain) [葡萄糖酸基胰岛素]”, for which, in the assay on 1型糖尿病小鼠, the “Blood glucose lowering effect compared with recombinant human insulin” value is reported as “仍有与重组人胰岛素类似的降糖效果”. In the assay on AKT信号磷酸化, the “Activity on AKT phosphorylation compared with recombinant human insulin” value was “显示出与未修饰的重组人胰岛素相似的活性”.
